In ChEMBL document CHEMBL5625220, “Discovery of anti-neuroinflammatory agents from 1,4,5,6-tetrahydrobenzo[2,3]oxepino[4,5-d]pyrimidin-2-amine derivatives by regulating microglia polarization” (Eur J Med Chem, 2023):
The source made the active and inactive calls. The rule behind the calls is not given here.

Legend:
[1] = Cytotoxicity against mouse BV-2 cells assessed as survival rate at 5 uM incubated for 24 hrs by CCK8 assay relative to control; type: toxicity, cell-based; conditions: read-out: Survival
[2] = test system: BV-2; assay: Anti-inflammatory activity in mouse BV-2 cells assessed as inhibition of LPS-induced TNF-alpha production at 5 uM preincubated with LPS for 2 hrs followed by compound addition and measured after 24 hrs by ELISA relative to control; type: functional
[3] = test system: BV-2; assay: Anti-inflammatory activity in mouse BV-2 cells assessed as inhibition of LPS-induced TNF-alpha production at 2.5 ug/ml preincubated with LPS for 2 hrs followed by compound addition and measured after 24 hrs by ELISA relative to control; type: functional
[4] = test system: BV-2; assay: Induction of microglial polarization to M2 phenotype in mouse BV-2 cells assessed as decrease in number of M1 phenotype microglial cells incubated for 24 hrs by flow cytometric analysis; type: functional, cell-based
[5] = test system: BV-2; assay: Anti-neuroinflammatory activity in LPS-induced mouse BV-2 cells assessed as decrease in iNOS labeled microglial cells preincubated with LPS for 2 hrs followed by compound addition and measured after 24 hrs by flow cytometric analysis; type: functional, cell-based
[6] = test system: BV-2; assay: Effect on IL-1beta expression in mouse BV-2 cells incubated for 24 hrs by ELISA; type: functional, cell-based
[7] = test system: BV-2; assay: Downregulation of PKM2 expression in LPS-stimulated mouse BV-2 cells preincubated with LPS for 2 hrs followed by compound addition and measured after 24 hrs by Western blot analysis; type: functional, cell-based
[8] = test system: BV-2; assay: Induction of microglial polarization to M2 phenotype in mouse BV-2 cells assessed as increase in number of M2 phenotype microglial cells incubated for 24 hrs by flow cytometric analysis; type: functional, cell-based
[9] = test system: BV-2; assay: Effect on caspase-1 expression in mouse BV-2 cells incubated for 24 hrs by Western blot analysis; type: functional, cell-based
[10] = test system: Mus musculus; assay: Anti-inflammatory activity in cuprizone fed C57BL/6 mouse model assessed as increase in remyelination in corpus callosum at 5 mg/kg, ip pretreated with cuprizone for 6 weeks followed by compound administration for 2 weeks by LFB staining based analysis; type: functional, organism-based
[11] = test system: BV-2; assay: Anti-neuroinflammatory activity in LPS-induced mouse BV-2 cells assessed as decrease in IL-18 secretion preincubated with LPS for 2 hrs followed by compound addition and measured after 24 hrs by ELISA; type: functional, cell-based
[12] = test system: BV-2; assay: Anti-neuroinflammatory activity in LPS-induced mouse BV-2 cells assessed as decrease in CD86 labeled microglial cells preincubated with LPS for 2 hrs followed by compound addition and measured after 24 hrs by flow cytometric analysis; type: functional, cell-based
[13] = test system: BV-2; assay: Effect on ASC expression in mouse BV-2 cells incubated for 24 hrs by Western blot analysis; type: functional, cell-based
[14] = test system: Mus musculus; assay: Anti-inflammatory activity in cuprizone fed C57BL/6 mouse model assessed as decrease in iNOS expression in corpus callosum at 5 mg/kg, ip pretreated with cuprizone for 6 weeks followed by compound administration for 2 weeks by immunofluorescence staining based confocal microscopic analysis; type: functional, organism-based
[15] = test system: BV-2; assay: (§1) Anti-neuroinflammatory activity in mouse BV-2 cells assessed as microglial polarization into M2 phenotype by measuring decrease in iNOS expression preincubated with LPS for 2 hrs followed by compound addition and measured after 24 hrs by immunofluorescence staining based confocal microscopic analysis; type: functional, cell-based
[16] = test system: BV-2; assay: Anti-neuroinflammatory activity in LPS-induced mouse BV-2 cells assessed as increase in CD206 labeled microglial cells preincubated with LPS for 2 hrs followed by compound addition and measured after 24 hrs by flow cytometric analysis; type: functional, cell-based
[17] = test system: BV-2; assay: Anti-neuroinflammatory activity in LPS-induced mouse BV-2 cells assessed as decrease in IL-1beta secretion preincubated with LPS for 2 hrs followed by compound addition and measured after 24 hrs by ELISA; type: functional, cell-based
[18] = test system: BV-2; assay: as §1, with “increase” for “decrease”, “CD206” for “iNOS”; type: functional, cell-based
[19] = test system: BV-2; assay: Anti-neuroinflammatory activity in LPS-induced mouse BV-2 cells assessed as increase in Arg-1 labeled microglial cells preincubated with LPS for 2 hrs followed by compound addition and measured after 24 hrs by flow cytometric analysis; type: functional, cell-based
[20] = test system: BV-2; assay: Effect on TNF-alpha expression in mouse BV-2 cells incubated for 24 hrs by ELISA; type: functional, cell-based
[21] = target: NACHT, LRR and PYD domains-containing protein 3 (Mus musculus) (UniProt Q8R4B8); assay: Inhibition of NLRP3 inflammasome formation in LPS-stimulated mouse BV-2 cells assessed as downregulation of NLRP3 protein expression preincubated with LPS for 2 hrs followed by compound addition and measured after 24 hrs by Western blot analysis; type: cell-based
Chain of NACHT, LRR and PYD domains-containing protein 3 (Mus musculus) (Q8R4B8 whole entry, the tested form may be a part): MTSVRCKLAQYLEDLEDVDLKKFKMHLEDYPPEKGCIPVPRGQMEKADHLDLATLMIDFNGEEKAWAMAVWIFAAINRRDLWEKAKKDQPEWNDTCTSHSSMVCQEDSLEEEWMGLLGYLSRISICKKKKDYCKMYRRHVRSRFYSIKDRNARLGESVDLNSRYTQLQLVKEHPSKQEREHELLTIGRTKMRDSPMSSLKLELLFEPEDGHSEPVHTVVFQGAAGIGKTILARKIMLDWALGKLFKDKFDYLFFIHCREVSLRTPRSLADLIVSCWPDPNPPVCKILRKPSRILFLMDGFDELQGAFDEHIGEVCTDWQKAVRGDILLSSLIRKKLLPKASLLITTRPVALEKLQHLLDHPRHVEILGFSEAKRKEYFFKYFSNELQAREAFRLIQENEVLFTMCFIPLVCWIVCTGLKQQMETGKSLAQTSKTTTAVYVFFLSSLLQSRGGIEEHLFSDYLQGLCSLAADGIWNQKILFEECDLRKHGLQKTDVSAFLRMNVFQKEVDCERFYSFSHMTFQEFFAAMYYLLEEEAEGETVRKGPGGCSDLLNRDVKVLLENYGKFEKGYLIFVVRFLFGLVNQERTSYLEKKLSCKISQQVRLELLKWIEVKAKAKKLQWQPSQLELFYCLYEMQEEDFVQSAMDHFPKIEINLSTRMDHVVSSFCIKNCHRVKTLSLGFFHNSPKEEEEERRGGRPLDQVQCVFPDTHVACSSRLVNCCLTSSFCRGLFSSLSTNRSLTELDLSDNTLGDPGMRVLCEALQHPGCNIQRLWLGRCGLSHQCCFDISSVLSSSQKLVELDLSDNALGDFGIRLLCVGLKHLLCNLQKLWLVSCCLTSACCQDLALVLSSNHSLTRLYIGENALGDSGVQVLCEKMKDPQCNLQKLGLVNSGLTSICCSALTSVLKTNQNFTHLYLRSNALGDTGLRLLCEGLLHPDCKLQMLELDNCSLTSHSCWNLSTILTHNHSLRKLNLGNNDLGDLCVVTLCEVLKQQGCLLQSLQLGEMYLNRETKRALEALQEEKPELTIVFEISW

[22] = test system: BV-2; assay: Effect on IL-18 expression in mouse BV-2 cells incubated for 24 hrs by ELISA; type: functional, cell-based
[23] = target: NACHT, LRR and PYD domains-containing protein 3 (Mus musculus) (UniProt Q8R4B8); assay: Inhibition of NLRP3 inflammasome formation in LPS-stimulated mouse BV-2 cells assessed as downregulation of caspase-1 protein expression preincubated with LPS for 2 hrs followed by compound addition and measured after 24 hrs by Western blot analysis; type: cell-based
[24] = test system: BV-2; assay: Effect on NLRP3 expression in mouse BV-2 cells incubated for 24 hrs by Western blot analysis; type: functional, cell-based
[25] = test system: BV-2; assay: Downregulation of PKM2 expression in LPS-stimulated mouse BV-2 cells preincubated with LPS for 2 hrs followed by compound addition and measured after 24 hrs by immunofluorescence staining based confocal microscopic analysis; type: functional, cell-based
[26] = test system: BV-2; assay: Anti-neuroinflammatory activity in LPS-induced mouse BV-2 cells assessed as increase in IL-10 secretion preincubated with LPS for 2 hrs followed by compound addition and measured after 24 hrs by ELISA; type: functional, cell-based
[27] = test system: Mus musculus; assay: Anti-inflammatory activity in cuprizone fed C57BL/6 mouse model assessed as increase in CD206 expression in corpus callosum at 5 mg/kg, ip pretreated with cuprizone for 6 weeks followed by compound administration for 2 weeks by immunofluorescence staining based confocal microscopic analysis; type: functional, organism-based
[28] = target: NACHT, LRR and PYD domains-containing protein 3 (Mus musculus) (UniProt Q8R4B8); assay: Inhibition of NLRP3 inflammasome formation in LPS-stimulated mouse BV-2 cells assessed as downregulation of ASC protein expression preincubated with LPS for 2 hrs followed by compound addition and measured after 24 hrs by Western blot analysis; type: cell-based
[29] = test system: BV-2; assay: Anti-neuroinflammatory activity in LPS-induced mouse BV-2 cells assessed as decrease in TNF-alpha secretion preincubated with LPS for 2 hrs followed by compound addition and measured after 24 hrs by ELISA; type: functional, cell-based
[30] = test system: BV-2; assay: Effect on IL-10 expression in mouse BV-2 cells incubated for 24 hrs by ELISA; type: functional, cell-based

COc1cc(OC)c2c(c1)OCCC1=C2NC(N)=NC1c1cccc(F)c1 (stereo unspecified)
viability at 24 h, 5 µM [1]: 120% | inhibition at 5 µM [2]: 74.3%

COc1cc(OC)c2c(c1)OCC/C(=C\c1ccccc1F)C2=O
viability at 24 h, 5 µM [1]: 146% | inhibition at 5 µM [2]: 62.1%

COc1cc(OC)c2c(c1)OCCC1=C2NC(N)=NC1c1c(F)cccc1F (stereo unspecified)
viability at 24 h, 5 µM [1]: 126% | inhibition at 5 µM [2]: 67.4%

COc1cc(OC)c2c(c1)OCC/C(=C\c1cccc(F)c1)C2=O
viability at 24 h, 5 µM [1]: 146% | inhibition at 5 µM [2]: 69.3%

COc1cc(OC)c2c(c1)OCCC1=C2NC(N)=NC1c1cc(F)cc(F)c1 (stereo unspecified)
viability at 24 h, 5 µM [1]: 128% | inhibition at 5 µM [2]: 76.8%

COc1cc(OC)c2c(c1)OCC/C(=C\c1ccc(C(F)(F)F)cc1)C2=O
viability at 24 h, 5 µM [1]: 145% | inhibition at 5 µM [2]: 65.8%

COc1cncc(-c2nc(N)nc3c2CCc2ccc(F)cc2-3)c1
viability at 24 h, 5 µM [1]: 99.3% | inhibition at 5 µM [2]: 62.9%

COc1cc(OC)c2c(c1)OCCC1=C2NC(N)=NC1c1ccc(F)cc1C(F)(F)F (stereo unspecified)
viability at 24 h, 5 µM [1]: 87.4% | inhibition at 5 µM [2]: 66.4%

COc1cc(OC)c2c(c1)OCC/C(=C\c1cc(F)cc(F)c1)C2=O
viability at 24 h, 5 µM [1]: 150% | inhibition at 5 µM [2]: 73.6%

COc1cc(OC)c2c(c1)OCCC1=C2NC(N)=NC1c1cc(F)ccc1F (stereo unspecified)
viability at 24 h, 5 µM [1]: 156% | inhibition at 5 µM [2]: 73.5%

COc1cc(OC)c2c(c1)OCCC1=C2NC(N)=NC1c1ccc(C(F)(F)F)cc1 (stereo unspecified)
viability at 24 h, 5 µM [1]: 150% | inhibition at 5 µM [2]: 72.1%

COc1cc(OC)c2c(c1)OCC/C(=C\c1ccc(F)cc1)C2=O
viability at 24 h, 5 µM [1]: 148% | inhibition at 5 µM [2]: 46.3%

S=C(S)N1CCCC1 [PYRROLIDINE DITHIOCARBAMATE]
inhibition at 2.5 µg/mL [3]: 58.4%

COc1cc(OC)c2c(c1)OCC/C(=C\c1cccc(F)c1C(F)(F)F)C2=O
viability at 24 h, 5 µM [1]: 120% | inhibition at 5 µM [2]: 68.3%

COc1cc(OC)c2c(c1)OCC/C(=C\c1cccc(C(F)(F)F)c1F)C2=O
viability at 24 h, 5 µM [1]: 117% | inhibition at 5 µM [2]: 88.7%

COc1cc(OC)c2c(c1)OCCC1=C2NC(N)=NC1c1c(F)cccc1C(F)(F)F (stereo unspecified)
viability at 24 h, 5 µM [1]: 124% | inhibition at 5 µM [2]: 65.7%

COc1cc(OC)c2c(c1)OCCC1=C2NC(N)=NC1c1ccccc1F (stereo unspecified)
viability at 24 h, 5 µM [1]: 143% | inhibition at 5 µM [2]: 73.4%

COc1cc(OC)c2c(c1)OCCC1=C2NC(N)=NC1c1cc(C(F)(F)F)cc(C(F)(F)F)c1 (stereo unspecified)
Activity [4]: inactive | Activity [5]: Active | Activity [6]: inactive | Activity [7]: Active | Activity [8]: Active | Activity [9]: inactive | Activity [10]: Active | Activity [11]: Active | Activity [12]: Active | Activity [13]: inactive | Activity [14]: Active | viability at 24 h, 5 µM [1]: 151% | Activity [15]: Active | Activity [16]: Active | Activity [17]: Active | Activity [18]: Active | Activity [19]: Active | Activity [20]: inactive | inhibition [21]: Active | Activity [22]: inactive | inhibition [23]: Active | Activity [24]: inactive | Activity [25]: Active | inhibition at 5 µM [2]: 94.5% | Activity [26]: Active | Activity [27]: Active | inhibition [28]: Active | Activity [29]: Active | Activity [30]: inactive

COc1cc(OC)c2c(c1)OCC/C(=C\c1ccc(F)cc1C(F)(F)F)C2=O
viability at 24 h, 5 µM [1]: 114% | inhibition at 5 µM [2]: 69.5%

COc1cc(OC)c2c(c1)OCC/C(=C\c1cc(C(F)(F)F)cc(C(F)(F)F)c1)C2=O
viability at 24 h, 5 µM [1]: 95% | inhibition at 5 µM [2]: 88.6%

COc1cc(OC)c2c(c1)OCC/C(=C\c1ccccc1C(F)(F)F)C2=O
viability at 24 h, 5 µM [1]: 142% | inhibition at 5 µM [2]: 74.3%

COc1cc(OC)c2c(c1)OCCC1=C2NC(N)=NC1c1ccccc1C(F)(F)F (stereo unspecified)
viability at 24 h, 5 µM [1]: 113% | inhibition at 5 µM [2]: 70.2%

COc1cc(OC)c2c(c1)OCCC(C(O)c1cccc(C(F)(F)F)c1)C2=O (stereo unspecified)
viability at 24 h, 5 µM [1]: 150% | inhibition at 5 µM [2]: 65.1%

COc1cc(OC)c2c(c1)OCC/C(=C\c1c(F)cccc1C(F)(F)F)C2=O
viability at 24 h, 5 µM [1]: 116% | inhibition at 5 µM [2]: 36.8%

COc1cc(OC)c2c(c1)OCCC1=C2NC(N)=NC1c1cccc(F)c1C(F)(F)F (stereo unspecified)
viability at 24 h, 5 µM [1]: 95.4% | inhibition at 5 µM [2]: 72.3%

COc1cc(OC)c2c(c1)OCC/C(=C\c1cc(F)ccc1F)C2=O
viability at 24 h, 5 µM [1]: 168% | inhibition at 5 µM [2]: 74.1%

COc1cc(OC)c2c(c1)OCCC1=C2NC(N)=NC1c1cccc(C(F)(F)F)c1 (stereo unspecified)
viability at 24 h, 5 µM [1]: 109% | inhibition at 5 µM [2]: 82.6%

COc1cc(OC)c2c(c1)OCC/C(=C\c1c(F)cccc1F)C2=O
viability at 24 h, 5 µM [1]: 146% | inhibition at 5 µM [2]: 62.5%

COc1cc(OC)c2c(c1)OCCC1=C2NC(N)=NC1c1ccc(F)cc1 (stereo unspecified)
viability at 24 h, 5 µM [1]: 157% | inhibition at 5 µM [2]: 56.8%

COc1cc(OC)c2c(c1)OCCC1=C2NC(N)=NC1c1cccc(C(F)(F)F)c1F (stereo unspecified)
viability at 24 h, 5 µM [1]: 111% | inhibition at 5 µM [2]: 91.5%
